Results as given in patent US8901120B2, “Substituted N-phenylpyrimidin-2-amine analogs as inhibitors of the Axl kinase” (University of Utah Research Foundation, priority 2011, dated 2014).

What was measured:
PSN-1 cells = experiment: Tumor xenograft animal model; type: in vivo, mouse; settings: PSN-1 xenograft, 50 mg/kg oral gavage daily (M-F)
Experimental: The in vivo activity of the foregoing compound was assessed in a tumor xenograft model in mouse. PSN-1 cells were cultured as described above and harvested. Cells (2 to 5×10^6 in 100 μl culture media) were implanted subcutaneously in the right hind flank of athymic nu/nu nude mice (5 to 6 weeks old, 18-22 g). Following implantation, the tumors are allowed to grow to 100 mm^3 before the animals are randomized into treatment groups (vehicle and test compound). Day 1 of study corresponds to the day that the animals receive their first dose of test compound (2-((5-chloro-2-((4-((4-methylpiperazin-1-yl)methyl)phenyl)amino)pyrimidin-4-yl)amino)-N,N-dimethylbenzenesulfonamide). The vehicle for this study was 5% EtOH, 45% PEG 400, and 50% water, and animals were dosed with either vehicle or test compound dissolved in this vehicle by oral gavage. The dose level was 50 mg/kg and dosing frequency was daily (M-F) with the test compound with recovery on the weekend.
The test compound was efficacious in limiting tumor growth, achieving about a 50% reduction in tumor volume at this dose level during this dosing period (FIG. 15).

[1] = system: phosphorylated Axl (pAxl); experiment: GAS6-Axl signalling assay, autophosphorylation of Axl; type: cell-based, Human; settings: pancreatic cancer cell lines, GAS6 stimulation, FIG. 8B
Experimental: (§1) Cell lines were seeded in 1 ml of the appropriate growth media with 10% FBS into 6-well plates (8×10^5 cells/well) and incubated overnight at 37° C. and 5% CO2. The following day, serum-containing growth media was replaced by serum-free media and incubated for 4 hr, and then test compounds were added to the cells at desired concentrations and incubated for an additional 2 hr. To stimulate Axl signaling, Gas6 was added to each well to a concentration of 3 μg/ml and incubated for 10 min. The cells were lysed immediately and the lysates used in a multiplex ELISA kit (Meso Scale Discovery, Gaithersburg, Md.) to quantitate the phosphorylated AKT (at position Ser473′ “pAkt”) or phosphorylated Axl (“pAxl”).

[2] = system: phosphorylated Akt (Ser473); experiment: GAS6-Axl signalling assay, phosphorylated Akt; type: cell-based; settings: Homo sapiens; PSN-1 and PL45 cells, in the presence of Gas6, FIG. 8A; read-out: IC50, inhibition of phosphorylated Akt levels
Experimental: as §1
To further explore the activity of a representative compound, 2-((5-chloro-2-((4-((4-methylpiperazin-1-yl)methyl)phenyl)amino)pyrimidin-4-yl)amino)-N,N-dimethylbenzenesulfonamide, of inhibiting Axl in a cell line system, the effect of the test compound on Akt phosphorylation (at the Ser473 position) was determined. The effect on Akt phosphorylation was assessed in two cell-lines (see FIG. 8A): PSN-1 and PL45. The overall method was as described above. Briefly, the cells were treated as indicated and lysates from these treatments were analyzed for phosphorylated Akt (Ser473) as described above.

[3] = system: sAxl in PL45 and PSN-1 cells; experiment: Release of sAxl into cell culture media (ELISA); type: cell-based, Human; settings: PL45 and PSN-1, serum-free, 24 hours, vs vehicle, FIG. 11
Experimental: Cell lines were plated and incubated overnight as described above. The following day the media was changed to serum-free and the cells were treated as indicated as indicated. After 24 hours, the media from the treatments were analyzed for sAxl (R&D Systems, Minneapolis, Minn.).
The proteolytic processing of the extracellular domain of the Axl receptor is a known event downstream of Axl activation and results in the release of soluble Axl (sAxl) into the cell culture media (in vitro) or into the blood stream (in vivo).

pancreatic cancer cells = experiment: Cell migration assay (collagen I Platypus plates); type: cell-based; settings: 18 hours migration, with Gas6, FIG. 10
Experimental: In this system, a gel prevents attachment of cells in a circle. The gel dissolves by exposure to the media, allowing cells to migrate into the open area. Cells migrated for 18 hours before fixation and staining. The extent of cell migration was determined by measuring the open surface in the inner circle of the well.

JAK family of kinases = experiment: Kinase profiling, JAK family; type: biochemical; settings: 200 nM test compound, ATP at Km apparent, FIG. 9
Experimental: (§2) The specificity of kinase inhibition was assessed with a representative compound, 2-((5-chloro-2-((4-((4-methylpiperazin-1-yl)methyl)phenyl)amino)pyrimidin-4-yl)amino)-N,N-dimethylbenzenesulfonamide, by determining the activity of this test compound against a panel of protein kinases. Kinase profiling was performed against a focus panel of kinases relevant to PDK1 signaling and other known oncogenic kinases. The panel comprised 75 distinct protein kinases, and data are shown for a subset of 39 kineases (see FIG. 9). […] The results from this screen confirmed good activity against Axl and the related members of the TAM family of kinases.

Aurora family of kinases = experiment: Kinase profiling, Aurora family; type: biochemical; settings: 200 nM test compound, ATP at Km apparent, FIG. 9
Experimental: as §2

[4] = system: Axl and the related members of the TAM family of kinases; experiment: Kinase profiling, Axl and TAM family; type: biochemical; settings: 200 nM test compound, ATP at Km apparent, FIG. 9
Experimental: as §2

[5] = Pharmacokinetics after oral dosing; type: in vivo; settings: mouse, mice, 50 mg/kg orally, plasma
Experimental: Mice were dosed orally with 50 mg/kg of the title compound. Blood was collected at the indicated time points (see FIG. 16).

With `CN1CCN(Cc2ccc(Nc3ncc(Cl)c(Nc4ccccc4S(=O)(=O)N(C)C)n3)cc2)CC1` [2-((5-chloro-2-((4-((4-methylpiperazin-1-yl)methyl)phenyl)amino)pyrimidin-4-yl)amino)-N,N-dimethylbenzenesulfonamide] the “impact on body weight” value (PSN-1 cells; FIG. 14) was “no apparent impact”, the “reduction in tumor volume” value (PSN-1 cells; FIG. 15) was about 50% and the “inhibition of autophosphorylation of Axl” value [1] was “dramatically inhibited”. The IC50 [2] was about 300 nM, the “reduction in sAxl levels in conditioned media” value [3] was “significant dose-dependent reductions” and the “inhibition of Gas6-induced migration and invasion” value (pancreatic cancer cells) was “inhibited”. The “activity against JAK family kinases in kinase profiling” value (JAK family of kinases) was “significant activity”, the “activity against Aurora family kinases in kinase profiling” value (Aurora family of kinases) was “significant activity” and the “activity against Axl and TAM family kinases in kinase profiling” value [4] was “good activity”. For the same compound, the AUC(0-t) [5] was 507 ng·h/mL, the Cmax [5] was 604 ng/mL and the Tmax [5] was 15 min. The half-life [5] was 66 min.
